Assay results published in ChEMBL document CHEMBL5465560, “Selectivity Literature for EUbOPEN Chemogenomic Library” (2024).

Tests used:
[1] = biological target: CDK3/cyclin E (Homo sapiens) (UniProt P24864+O96020+Q00526); assay: Selectivity interaction (Millipore kinase profiler) EUB0000124b CDK3; type: protein-complex assay; conditions: at 10 µM
[2] = biological target: T1, Ephrin type-B receptor 4 (Homo sapiens) (UniProt P54760); assay: Selectivity interaction (Kinase screening (Nanosyn)) EUB0000604a EPHB4
T1 sequence (whole entry): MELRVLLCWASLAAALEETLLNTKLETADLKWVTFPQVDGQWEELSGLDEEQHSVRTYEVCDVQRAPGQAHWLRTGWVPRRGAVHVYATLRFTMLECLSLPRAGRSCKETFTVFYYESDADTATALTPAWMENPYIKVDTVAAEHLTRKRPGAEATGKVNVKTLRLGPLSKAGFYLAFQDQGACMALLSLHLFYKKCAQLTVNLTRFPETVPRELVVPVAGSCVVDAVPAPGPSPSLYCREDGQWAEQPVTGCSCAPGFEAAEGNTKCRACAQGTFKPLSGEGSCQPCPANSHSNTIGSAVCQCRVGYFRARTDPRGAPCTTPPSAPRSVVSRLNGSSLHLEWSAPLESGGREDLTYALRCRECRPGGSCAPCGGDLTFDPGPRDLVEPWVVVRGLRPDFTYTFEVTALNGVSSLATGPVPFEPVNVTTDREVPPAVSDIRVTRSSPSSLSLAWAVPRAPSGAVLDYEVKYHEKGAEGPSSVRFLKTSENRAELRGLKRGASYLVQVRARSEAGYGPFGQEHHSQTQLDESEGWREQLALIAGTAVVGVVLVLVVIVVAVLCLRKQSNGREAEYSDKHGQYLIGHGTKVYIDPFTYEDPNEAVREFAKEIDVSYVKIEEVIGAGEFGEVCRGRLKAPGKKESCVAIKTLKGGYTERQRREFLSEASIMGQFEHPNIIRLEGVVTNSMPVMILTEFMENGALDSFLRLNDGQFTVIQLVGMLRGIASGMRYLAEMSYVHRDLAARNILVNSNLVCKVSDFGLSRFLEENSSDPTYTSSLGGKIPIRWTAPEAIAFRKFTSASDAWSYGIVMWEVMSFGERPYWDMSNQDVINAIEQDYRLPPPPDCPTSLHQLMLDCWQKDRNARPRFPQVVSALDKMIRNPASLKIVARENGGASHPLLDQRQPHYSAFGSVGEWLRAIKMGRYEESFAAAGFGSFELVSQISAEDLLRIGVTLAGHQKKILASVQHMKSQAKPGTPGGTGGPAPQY

[3] = biological target: Tyrosine-protein kinase Lck (Homo sapiens, UniProt P06239); assay: Selectivity interaction (Kinase screening (Upstate/Millipore)) EUB0000604a LCK
[4] = biological target: T2, Serine/threonine-protein kinase D3 (Homo sapiens) (UniProt O94806); assay: Selectivity interaction (ActivX KiNativ screen (kinase selectivity in THP-1 cell lysates)) EUB0000639a PRKD3; type: subcellular; conditions: lysate, at 5 µM
T2 sequence (whole entry): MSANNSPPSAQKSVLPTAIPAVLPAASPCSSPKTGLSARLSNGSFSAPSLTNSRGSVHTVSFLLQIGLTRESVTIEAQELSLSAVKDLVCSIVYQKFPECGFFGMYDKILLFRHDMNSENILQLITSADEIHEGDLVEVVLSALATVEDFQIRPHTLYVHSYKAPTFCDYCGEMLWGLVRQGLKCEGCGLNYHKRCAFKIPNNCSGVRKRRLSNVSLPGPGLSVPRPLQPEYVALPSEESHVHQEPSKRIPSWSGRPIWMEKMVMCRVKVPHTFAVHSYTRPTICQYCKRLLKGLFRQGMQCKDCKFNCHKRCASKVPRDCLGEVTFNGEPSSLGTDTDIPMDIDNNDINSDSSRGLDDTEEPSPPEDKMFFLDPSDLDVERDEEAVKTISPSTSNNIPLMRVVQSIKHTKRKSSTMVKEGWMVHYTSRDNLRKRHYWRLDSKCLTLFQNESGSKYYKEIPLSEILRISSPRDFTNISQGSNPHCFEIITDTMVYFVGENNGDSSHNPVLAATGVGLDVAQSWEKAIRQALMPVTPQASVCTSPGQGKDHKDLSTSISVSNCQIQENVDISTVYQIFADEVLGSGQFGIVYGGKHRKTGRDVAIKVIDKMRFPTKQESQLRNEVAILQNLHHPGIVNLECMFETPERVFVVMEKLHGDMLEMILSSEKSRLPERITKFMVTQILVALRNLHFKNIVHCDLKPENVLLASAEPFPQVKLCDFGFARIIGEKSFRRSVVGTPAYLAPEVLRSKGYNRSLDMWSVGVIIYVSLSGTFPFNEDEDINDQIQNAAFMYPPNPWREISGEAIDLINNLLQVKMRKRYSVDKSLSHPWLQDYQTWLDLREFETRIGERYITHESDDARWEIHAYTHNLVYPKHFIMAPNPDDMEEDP

[5] = biological target: T3, Histone-arginine methyltransferase CARM1 (Homo sapiens) (UniProt Q86X55); conditions: KMS-12-PE, at 3 µM
T3 sequence (whole entry): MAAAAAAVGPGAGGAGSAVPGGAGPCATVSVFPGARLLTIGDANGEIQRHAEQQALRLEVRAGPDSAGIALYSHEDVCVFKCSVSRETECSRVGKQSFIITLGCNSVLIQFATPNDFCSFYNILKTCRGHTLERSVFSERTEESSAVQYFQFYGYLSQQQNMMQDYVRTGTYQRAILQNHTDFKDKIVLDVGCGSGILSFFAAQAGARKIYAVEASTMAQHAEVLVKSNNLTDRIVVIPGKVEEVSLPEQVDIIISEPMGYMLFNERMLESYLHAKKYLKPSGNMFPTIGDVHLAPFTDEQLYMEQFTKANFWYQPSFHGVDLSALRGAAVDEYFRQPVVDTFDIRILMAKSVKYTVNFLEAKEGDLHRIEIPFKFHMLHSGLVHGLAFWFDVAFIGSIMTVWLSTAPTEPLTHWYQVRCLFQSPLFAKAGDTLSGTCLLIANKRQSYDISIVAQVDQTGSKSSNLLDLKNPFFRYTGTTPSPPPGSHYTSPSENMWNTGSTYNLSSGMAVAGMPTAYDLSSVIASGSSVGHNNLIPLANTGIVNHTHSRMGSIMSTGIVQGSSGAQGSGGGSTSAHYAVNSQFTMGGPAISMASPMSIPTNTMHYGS

[6] = biological target: Atypical kinase COQ8A, mitochondrial (Homo sapiens, UniProt Q8NI60); assay: Selectivity interaction (KinomeScan (DiscoverX)) EUB0000595a ADCK3; conditions: at 10 µM
[7] = biological target: Serine/threonine-protein kinase 35 (Homo sapiens) (UniProt Q8TDR2); assay: Selectivity interaction (KinomeScan (DiscoverX)) EUB0000595a STK35; conditions: at 10 µM
Sequence of Serine/threonine-protein kinase 35 (Homo sapiens) (Q8TDR2 whole entry): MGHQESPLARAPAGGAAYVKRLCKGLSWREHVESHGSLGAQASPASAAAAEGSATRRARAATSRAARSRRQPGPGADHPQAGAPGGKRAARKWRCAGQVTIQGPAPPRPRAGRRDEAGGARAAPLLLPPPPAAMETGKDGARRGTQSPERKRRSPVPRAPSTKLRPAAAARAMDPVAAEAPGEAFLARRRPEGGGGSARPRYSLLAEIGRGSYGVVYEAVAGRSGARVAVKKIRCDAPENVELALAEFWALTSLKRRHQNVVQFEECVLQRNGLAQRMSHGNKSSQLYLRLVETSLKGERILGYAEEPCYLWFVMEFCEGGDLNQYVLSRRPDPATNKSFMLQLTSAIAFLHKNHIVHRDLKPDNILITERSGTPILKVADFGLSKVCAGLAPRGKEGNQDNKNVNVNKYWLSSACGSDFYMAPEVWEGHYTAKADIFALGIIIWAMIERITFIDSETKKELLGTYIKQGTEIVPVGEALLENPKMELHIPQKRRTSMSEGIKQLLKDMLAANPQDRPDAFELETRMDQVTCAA

Sequence of CDK3/cyclin E (Homo sapiens) (O96020 whole entry, looked up): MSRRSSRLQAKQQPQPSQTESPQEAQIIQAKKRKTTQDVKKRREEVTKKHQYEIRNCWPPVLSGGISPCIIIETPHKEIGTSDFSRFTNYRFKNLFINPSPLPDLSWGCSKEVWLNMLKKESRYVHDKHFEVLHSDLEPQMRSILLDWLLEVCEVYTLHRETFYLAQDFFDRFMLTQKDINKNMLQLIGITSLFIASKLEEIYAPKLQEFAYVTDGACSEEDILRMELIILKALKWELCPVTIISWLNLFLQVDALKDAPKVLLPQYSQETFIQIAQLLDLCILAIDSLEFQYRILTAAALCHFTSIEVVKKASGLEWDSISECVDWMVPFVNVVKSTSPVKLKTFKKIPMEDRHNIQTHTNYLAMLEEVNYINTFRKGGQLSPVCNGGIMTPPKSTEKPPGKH
Sequence of CDK3/cyclin E (Homo sapiens) (P24864 whole entry, looked up): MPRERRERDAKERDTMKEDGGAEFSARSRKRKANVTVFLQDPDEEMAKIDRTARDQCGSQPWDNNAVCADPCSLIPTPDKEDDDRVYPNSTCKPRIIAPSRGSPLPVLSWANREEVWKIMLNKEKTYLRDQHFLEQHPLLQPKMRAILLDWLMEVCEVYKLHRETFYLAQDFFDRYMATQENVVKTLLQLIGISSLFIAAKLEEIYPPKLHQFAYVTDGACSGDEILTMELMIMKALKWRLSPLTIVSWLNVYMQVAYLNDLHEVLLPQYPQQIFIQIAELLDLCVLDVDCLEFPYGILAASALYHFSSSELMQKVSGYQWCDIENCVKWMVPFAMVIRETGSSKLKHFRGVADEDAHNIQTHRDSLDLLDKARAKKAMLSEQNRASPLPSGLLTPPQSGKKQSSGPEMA
Sequence of CDK3/cyclin E (Homo sapiens) (Q00526 whole entry, looked up): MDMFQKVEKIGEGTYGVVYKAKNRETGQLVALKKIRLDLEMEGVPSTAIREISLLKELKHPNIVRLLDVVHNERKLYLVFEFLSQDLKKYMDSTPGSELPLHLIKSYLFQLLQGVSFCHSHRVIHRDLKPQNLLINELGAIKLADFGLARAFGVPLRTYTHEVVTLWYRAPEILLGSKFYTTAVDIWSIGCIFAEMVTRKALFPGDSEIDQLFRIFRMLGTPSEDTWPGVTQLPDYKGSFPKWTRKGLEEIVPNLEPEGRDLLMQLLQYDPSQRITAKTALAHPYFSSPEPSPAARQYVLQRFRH
Sequence of Atypical kinase COQ8A, mitochondrial (Q8NI60 163-647 limits assumed): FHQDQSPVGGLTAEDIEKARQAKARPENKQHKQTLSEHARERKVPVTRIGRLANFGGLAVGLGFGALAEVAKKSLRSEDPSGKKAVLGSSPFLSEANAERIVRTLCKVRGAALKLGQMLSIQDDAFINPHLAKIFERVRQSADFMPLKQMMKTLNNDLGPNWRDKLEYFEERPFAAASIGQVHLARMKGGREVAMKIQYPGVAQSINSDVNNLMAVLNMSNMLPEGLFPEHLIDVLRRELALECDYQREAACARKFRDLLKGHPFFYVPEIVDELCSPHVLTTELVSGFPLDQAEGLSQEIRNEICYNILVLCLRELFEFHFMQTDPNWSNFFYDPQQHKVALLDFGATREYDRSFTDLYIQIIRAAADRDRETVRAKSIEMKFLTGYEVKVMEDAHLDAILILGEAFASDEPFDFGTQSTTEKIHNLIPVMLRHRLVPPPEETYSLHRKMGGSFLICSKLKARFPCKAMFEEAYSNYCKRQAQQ
Sequence of Tyrosine-protein kinase Lck (P06239 2-509 limits assumed): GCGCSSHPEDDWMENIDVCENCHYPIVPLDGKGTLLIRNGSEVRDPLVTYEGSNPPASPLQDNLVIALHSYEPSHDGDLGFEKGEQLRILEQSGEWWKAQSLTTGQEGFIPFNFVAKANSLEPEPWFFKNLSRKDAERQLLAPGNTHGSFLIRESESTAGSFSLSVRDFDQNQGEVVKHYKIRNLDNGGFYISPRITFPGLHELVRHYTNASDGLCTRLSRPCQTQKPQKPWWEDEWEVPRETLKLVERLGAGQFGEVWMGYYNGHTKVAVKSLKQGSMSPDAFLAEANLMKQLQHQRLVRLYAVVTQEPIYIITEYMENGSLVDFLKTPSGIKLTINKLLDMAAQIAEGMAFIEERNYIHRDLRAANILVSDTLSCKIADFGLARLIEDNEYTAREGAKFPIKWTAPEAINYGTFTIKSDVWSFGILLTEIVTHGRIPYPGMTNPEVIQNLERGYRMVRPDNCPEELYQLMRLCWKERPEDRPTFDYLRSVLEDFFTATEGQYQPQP

CC(=O)Nc1cccc(-n2c(=O)n(C3CC3)c(=O)c3c(Nc4ccc(I)cc4F)n(C)c(=O)c(C)c32)c1
% of control [1]: 101%

Cc1cnc(Nc2ccc(F)cc2Cl)nc1-c1c[nH]c(C(=O)N[C@H](CO)c2cccc(Cl)c2)c1
% of inhibition [2]: 0%
% of inhibition [3]: 3%

CC[C@@H]1[C@H](F)C(=O)N[C@@H]1COc1nccc2cc(C(N)=O)c(OC)cc12 [ZIMLOVISERTIB]
% of inhibition [4]: -5.2%

CNCCN1CCC(c2cc(CN(C)C(=O)c3cccc(Oc4ccccc4)c3)ccn2)CC1
% of growth rate [5]: -4.4%

COCC(=O)NC/C=C/c1ccc2ncnc(Nc3ccc(Oc4ccc(C)nc4)c(C)c3)c2c1 [CP-724714]
% of control [6]: 100%
% of control [7]: 65%
